According to article PMC6934825 (Scientific Reports, 2019):
“Also recorded” adds a separate entry of the source.

Legend:
[1] = plasma in vitro; cited from earlier work
[2] = human, up to 120 minutes
[3] = in vivo study in male rats; settings: cited from earlier work
[4] = clinical trials, acute respiratory distress syndrome; cited from earlier work

**Q.** Which “degradation in rat and mouse plasma compared to dog, monkey and human plasma” value [1] does the source give for CSCC[C@H](NC(=O)[C@@H]1CCCN1C(=O)CNC(=O)[C@H](CCCCN)NC(=O)[C@H](Cc1cnc[nH]1)NC(=O)[C@H](CO)NC(=O)[C@H](CC(C)C)NC(=O)[C@H](CCCNC(=N)N)NC(=O)[C@@H]1CCCN1C(=O)[C@H](CCCNC(=N)N)NC(=O)[C@@H]1CCC(=O)N1)C(=O)N1CCC[C@H]1C(=O)N[C@@H](Cc1ccccc1)C(=O)O [[Pyr^1]apelin-13] here?
**A.** Its value is “more rapid degradation”.

**Q.** With “pGlu Arg Pro Arg Leu Ser His Lys Gly Pro Met Pro Phe” as the compound, how does the cleaved bond [2] read?
**A.** The cleaved bond was “Pro10-Met11, major, 120 minutes; also recorded: Ser6-His7, major, 120 minutes; also recorded: Leu5-Ser6, 120 minutes”.

**Q.** What about the fragment found [3] of the same compound?
**A.** Its fragment found is “[Pyr^1]apelin-13(1–12); also recorded: [Pyr^1]apelin-13(1–10); also recorded: [Pyr^1]apelin-13(1–6)”.

**Q.** For “GSK2586881: recombinant human ACE2 for treatment of acute respiratory distress syndrome”, which tolerability [4] is on record?
**A.** The tolerability was “well-tolerated”.
